The NIST ThermoML archive (doi:10.1021/acs.jced.8b01135)
Several values for one entry are separate records, joined by “and”; a condition that tells them apart may be missing. Equal values may be shown once.

Settings: Liquid; for speed of sound: Frequency=3 MHz, Single path-length method; for mass density: Vibrating tube method; for viscosity: Concentric cylinders viscometry

CCCC1CCCCC1 [1-cyclohexylpropane]
Settings | mass density, 102 kPa [kg/m3] | speed of sound, 88 kPa [m/s] | speed of sound, 102 kPa [m/s] | viscosity, 102 kPa [mPa·s]
288.15 K | 797.42 | – | 1328.6 | –
293.15 K | 793.53 | 1307.7 | 1307.7 | 0.981
298.15 K | 789.63 | – | 1287.1 | –
303.15 K | 785.72 | 1266.6 | 1266.6 | 0.856
313.15 K | 777.88 | 1226.2 | 1226.2 | 0.75
323.15 K | 770 | 1186.5 | 1186.5 | 0.668
333.15 K | 762.09 | 1147.7 | 1147.7 | 0.594

CCCCCCCCCCC1CCCCC1 [decylcyclohexane]
102 kPa
Settings | mass density [kg/m3] | speed of sound [m/s] | viscosity [mPa·s]
288.15 K | 821.93 | 1425.2 | –
293.15 K | 818.54 | 1406.4 | 5.34
298.15 K | 815.16 | 1387.7 | –
303.15 K | 811.78 | 1369.1 | 4.09
313.15 K | 805.02 | 1332.8 | 3.23
323.15 K | 798.26 | 1297.2 | 2.6
333.15 K | 791.49 | 1262.7 | 2.15

CCCCCCCCCCCC [dodecane]
102 kPa
Settings | mass density | speed of sound [m/s] | viscosity [mPa·s]
288.15 K | 752.35 kg/m3 | 1317.2 | –
293.15 K | 748.72 kg/m3 | 1297.7 | 1.49
298.15 K | 745.09 kg/m3 | 1278.2 | –
303.15 K | 741.46 kg/m3 | 1259 | 1.27
313.15 K | 734.18 kg/m3 and 734.19 kg/m3 | 1221.1 | 1.08
323.15 K | 726.88 kg/m3 | 1184 | 0.934
333.15 K | 719.53 kg/m3 | 1147.8 | 0.813
